Assay results: ChEMBL document CHEMBL2346588, “Design, synthesis, and biological activity of diaryl ether inhibitors of Toxoplasma gondii enoyl reductase” (Bioorg Med Chem Lett, 2013)
Values after ≈ are worked out from the molar mass of the structure shown. Active and inactive are the calls of the source. The calls are words filed in the database; no cut-off is given here.

Legend:
[1] = target: T1, Enoyl-acyl carrier reductase (Toxoplasma gondii) (UniProt Q6UCJ9); assay: Inhibition of Toxoplasma gondii enoyl reductase assessed as conversion of trans-2-acyl-ACP to acyl-ACP at 1 uM
T1 sequence (whole entry): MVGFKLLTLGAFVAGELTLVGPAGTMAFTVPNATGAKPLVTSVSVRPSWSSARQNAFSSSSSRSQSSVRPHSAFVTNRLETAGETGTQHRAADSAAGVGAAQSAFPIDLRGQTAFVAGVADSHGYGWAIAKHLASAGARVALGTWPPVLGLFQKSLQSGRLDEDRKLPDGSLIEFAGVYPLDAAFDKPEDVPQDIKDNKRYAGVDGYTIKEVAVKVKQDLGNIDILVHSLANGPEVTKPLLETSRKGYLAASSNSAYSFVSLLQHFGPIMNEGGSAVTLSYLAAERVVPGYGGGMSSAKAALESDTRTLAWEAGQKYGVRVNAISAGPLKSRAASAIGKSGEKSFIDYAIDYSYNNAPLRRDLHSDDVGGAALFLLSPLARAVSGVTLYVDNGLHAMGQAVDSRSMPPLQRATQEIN

HFF = assay: Cytotoxicity against HFF assessed as inhibition of [3H]-thymidine incorporation after 24 hrs by […] assay; type: cell-based; conditions: human
Toxoplasma gondii [2] = assay: Antiparasitic activity against Toxoplasma gondii type 1 RH expressing YFP infected in HFF assessed as inhibition of [3H]-uracil incorporation after 72 hrs by liquid scintillation counting; type: functional
Toxoplasma gondii [3] = assay: Antiparasitic activity against Toxoplasma gondii infected in BALB/c mouse assessed as reduction of parasite burden at 25 mg/kg, ip qd for 5 days; type: functional, organism-based; set-up: dose 25 mg/kg
[4] = target: T2, Enoyl-acyl carrier reductase (Toxoplasma gondii, UniProt Q6UCJ9); assay: Inhibition of Toxoplasma gondii enoyl reductase assessed as conversion of trans-2-acyl-ACP to acyl-ACP
T2 sequence (Q6UCJ9 whole entry): T1 sequence (whole entry)

Plasmodium falciparum [5] = assay: Antimalarial activity against chloroquine-resistant Plasmodium falciparum TM91C235 after 24 hrs by SYBR Green I based fluorescence assay; type: functional, organism-based; conditions: TM91C235, 24 h
Plasmodium falciparum [6] = assay: Antimalarial activity against Plasmodium falciparum D6 after 24 hrs by SYBR Green I based fluorescence assay; type: functional, organism-based; conditions: D6, 24 h
Mus musculus = assay: Toxicity in Toxoplasma gondii infected BALB/c mouse assessed mortality at 75 mg/kg, ip qd for 5 days measured 7 day after infection; type: organism-based; set-up: dose 75 mg/kg, route intraperitoneal; conditions: in vivo, 168 h
Toxoplasma gondii [7] = assay: Antiparasitic activity against Toxoplasma gondii infected in BALB/c mouse assessed as reduction of parasite burden at 50 mg/kg, ip qd for 5 days; type: functional, organism-based; set-up: dose 50 mg/kg

| SMILES | inhibition [1] [%] | INH (HFF) [µM] | MIC50 (Toxoplasma gondii [2]) [µM] | Activity (Toxoplasma gondii [3]) | IC50 [4] [nM] | IC50 (Plasmodium falciparum [5]) [µg/mL] | IC50 (Plasmodium falciparum [6]) [µg/mL] | Activity (Mus musculus) | Activity (Toxoplasma gondii [7]) |
| --- | --- | --- | --- | --- | --- | --- | --- | --- | --- |
| CC(C)(C)OC(=O)N1CCN(C(=O)c2ccc(Oc3ccc(Cl)cc3O)s2)CC1 | 76 | > 10 | > 10 | – | – | – | – | – | – |
| O=S(=O)(c1ccc(Oc2ccc(Cl)cc2O)cc1)N1CCCCC1 | 81 | > 10 | 10 (≈ 3.68 µg/mL) | – | – | – | – | – | – |
| Cn1cc(C(=O)Nc2ccc(Cl)cc2O)c(C(F)(F)F)n1 | 27 | > 10 | > 10 | – | – | – | – | – | – |
| O=C(O)c1ccc(Oc2ccc(Cl)cc2O)o1 | 79 | > 10 | > 10 | – | – | – | – | – | – |
| Oc1cc(Cl)ccc1Oc1ccc(Cl)cc1Cl [TRICLOSAN] | – | > 10 | 5 (≈ 1.45 µg/mL) | Active | – | – | – | – | – |
| CC(=O)N1CCN(C(=O)c2ccc(Oc3ccc(Cl)cc3O)o2)CC1 | 45 | > 10 | > 10 | – | – | – | – | – | – |
| O=C(c1ccc(Oc2ccc(Cl)cc2O)s1)N1CCNCC1 | 60 | > 10 | > 10 | – | – | – | – | – | – |
| Oc1cc(Cl)ccc1Oc1ccc2ccccc2c1 | 91 | > 10 | 10 (≈ 2.71 µg/mL) | – | 41 | – | – | – | – |
| CCNC(=O)c1ccc(Oc2ccc(Cl)cc2O)s1 | 75 | 10 | – | – | – | – | – | – | – |
| Oc1cc(Cl)ccc1Oc1ccc2ncccc2c1 | 87 | > 10 | 7.5 (≈ 2.04 µg/mL) | – | 135 | – | – | – | – |
| CNC(=O)c1ccc(Oc2ccc(Cl)cc2O)o1 | 46 | > 10 | > 10 | – | – | – | – | – | – |
| Oc1cc(Cl)ccc1Oc1ccc(C(F)(F)F)cc1Cl | 95 | > 10 | 4 (≈ 1.29 µg/mL) | – | 30 | – | – | – | – |
| O=C(O)c1ccc(Oc2ccc(Cl)cc2O)s1 | 48 | > 10 | 10 (≈ 2.71 µg/mL) | – | – | – | – | – | – |
| CN1CCN(Cc2ccc(Oc3ccc(Cl)cc3O)cc2)CC1 | 32 | > 10 | > 10 | – | – | – | – | – | – |
| CC(=O)N1CCN(c2ccc(Oc3ccc(Cl)cc3O)cc2)CC1 | 81 | > 10 | 1.5 (≈ 0.52 µg/mL) | – | 225 | > 10 | > 10 | Toxic | inactive |
| CC(=O)N1CCN(Cc2ccc(Oc3ccc(Cl)cc3O)s2)CC1 | 73 | > 10 | 5 (≈ 1.83 µg/mL) | – | 965 | – | – | – | – |
| O=S(=O)(c1ccc(Oc2ccc(Cl)cc2O)cc1)N1CCCC1 | 78 | > 10 | 10 (≈ 3.54 µg/mL) | – | – | – | – | – | – |
| Oc1cc(Cl)ccc1Oc1ccc(N2CCOCC2)cc1 | 74 | > 10 | > 10 | – | – | – | – | – | – |
| CN1CCN(c2ccc(Oc3ccc(Cl)cc3O)cc2)CC1 | 25 | > 10 | – | – | – | – | – | – | – |
| Cc1cc(NC(=O)c2ccc(Oc3ccc(Cl)cc3O)o2)no1 | 90 | > 10 | 10 (≈ 3.35 µg/mL) | – | 58 | – | – | – | – |
